{"source": "PubChem BioAssay (NCI)", "assay_in_all_cases": "NCI tumour cell line growth inhibition, 48 h", "key": {"[1]": {"test_system": "IGROV1 ovarian"}, "[2]": {"test_system": "SK-OV-3 ovarian"}, "[3]": {"test_system": "UACC-62 melanoma"}, "[4]": {"test_system": "U251 CNS"}, "[5]": {"test_system": "NCI-H460 lung"}, "[6]": {"test_system": "MALME-3M melanoma"}, "[7]": {"test_system": "NCI-H226 lung"}, "[8]": {"test_system": "HCC-2998 colon"}, "[9]": {"test_system": "HT29 colon"}, "[10]": {"test_system": "HCT-15 colon"}, "[11]": {"test_system": "M14 melanoma"}, "[12]": {"test_system": "K-562 leukemia"}, "[13]": {"test_system": "SNB-75 CNS"}, "[14]": {"test_system": "TK-10 renal"}, "[15]": {"test_system": "NCI-H23 lung"}, "[16]": {"test_system": "MOLT-4 leukemia"}, "[17]": {"test_system": "CAKI-1 renal"}, "[18]": {"test_system": "HOP-92 NSCLC"}, "[19]": {"test_system": "786-0 renal"}, "[20]": {"test_system": "MDA-MB-435"}, "[21]": {"test_system": "SF-268 CNS"}, "[22]": {"test_system": "HL-60(TB) leukemia"}, "[23]": {"test_system": "MDA-MB-231 breast"}, "[24]": {"test_system": "UO-31 renal"}, "[25]": {"test_system": "NCI/ADR-RES ovarian"}, "[26]": {"test_system": "OVCAR-5 ovarian"}, "[27]": {"test_system": "BT-549 breast"}, "[28]": {"test_system": "PC-3 prostate"}, "[29]": {"test_system": "SN12C renal"}, "[30]": {"test_system": "DU-145 prostate"}, "[31]": {"test_system": "HCT-116 colon"}, "[32]": {"test_system": "SK-MEL-5 melanoma"}, "[33]": {"test_system": "HOP-62 NSCLC"}, "[34]": {"test_system": "LOX IMVI melanoma"}, "[35]": {"test_system": "COLO 205 colon"}, "[36]": {"test_system": "OVCAR-4 ovarian"}, "[37]": {"test_system": "KM12 colon"}, "[38]": {"test_system": "OVCAR-3 ovarian"}, "[39]": {"test_system": "HS 578T breast"}, "[40]": {"test_system": "A549 NSCLC"}, "[41]": {"test_system": "NCI-H522 lung"}, "[42]": {"test_system": "SK-MEL-28 melanoma"}, "[43]": {"test_system": "T-47D breast"}, "[44]": {"test_system": "SR leukemia"}, "[45]": {"test_system": "SK-MEL-2 melanoma"}, "[46]": {"test_system": "SNB-19 CNS"}, "[47]": {"test_system": "SF-295 CNS"}, "[48]": {"test_system": "CCRF-CEM leukemia"}, "[49]": {"test_system": "MDA-N"}, "[50]": {"test_system": "RPMI-8226 leukemia"}, "[51]": {"test_system": "MCF7 breast"}, "[52]": {"test_system": "OVCAR-8 ovarian"}, "[53]": {"test_system": "ACHN renal"}, "[54]": {"test_system": "RXF 393 renal"}, "[55]": {"test_system": "EKVX NSCLC"}, "[56]": {"test_system": "UACC-257 melanoma"}}, "note": "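Step 1: Grow cells in 96-well plates. Step 2: Expose to compound for 48 hours at 5 concentrations. Step 3: Interpolate endpoints linearly; if unreached, use highest concentration. TGI: total growth inhibition.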", "data": [{"smiles": "COc1cc(C=C(c2ccc(N(C)C)cc2)c2ccc(N(C)C)cc2)c2ccccc2c1OC", "values": [{"measurement": "TGI", "setting": "[1]", "result": "> 100", "unit": "µM"}, {"measurement": "TGI", "setting": "[2]", "result": "> 100", "unit": "µM"}, {"measurement": "TGI", "setting": "[3]", "result": "> 100", "unit": "µM"}, {"measurement": "TGI", "setting": "[4]", "result": "> 100", "unit": "µM"}, {"measurement": "TGI", "setting": "[5]", "result": "> 100", "unit": "µM"}, {"measurement": "TGI", "setting": "[6]", "result": "> 100", "unit": "µM"}, {"measurement": "TGI", "setting": "[7]", "result": "> 100", "unit": "µM"}, {"measurement": "TGI", "setting": "[8]", "result": "> 100", "unit": "µM"}, {"measurement": "TGI", "setting": "[9]", "result": "> 100", "unit": "µM"}, {"measurement": "TGI", "setting": "[10]", "result": "> 100", "unit": "µM"}, {"measurement": "TGI", "setting": "[11]", "result": "> 100", "unit": "µM"}, {"measurement": "TGI", "setting": "[12]", "result": "> 100", "unit": "µM"}, {"measurement": "TGI", "setting": "[13]", "result": "> 100", "unit": "µM"}, {"measurement": "TGI", "setting": "[14]", "result": "> 100", "unit": "µM"}, {"measurement": "TGI", "setting": "[15]", "result": "> 100", "unit": "µM"}, {"measurement": "TGI", "setting": "[16]", "result": "> 100", "unit": "µM"}, {"measurement": "TGI", "setting": "[17]", "result": "> 100", "unit": "µM"}, {"measurement": "TGI", "setting": "[18]", "result": "> 100", "unit": "µM"}, {"measurement": "TGI", "setting": "[19]", "result": "> 100", "unit": "µM"}, {"measurement": "TGI", "setting": "[20]", "result": "> 100", "unit": "µM"}, {"measurement": "TGI", "setting": "[21]", "result": "> 100", "unit": "µM"}, {"measurement": "TGI", "setting": "[22]", "result": "> 100", "unit": "µM"}, {"measurement": "TGI", "setting": "[23]", "result": "> 100", "unit": "µM"}, {"measurement": "TGI", "setting": "[24]", "result": "> 100", "unit": "µM"}, {"measurement": "TGI", "setting": "[25]", "result": "> 100", "unit": "µM"}, {"measurement": "TGI", "setting": "[26]", "result": "> 100", "unit": "µM"}, {"measurement": "TGI", "setting": "[27]", "result": "> 100", "unit": "µM"}, {"measurement": "TGI", "setting": "[28]", "result": "> 100", "unit": "µM"}, {"measurement": "TGI", "setting": "[29]", "result": "> 100", "unit": "µM"}, {"measurement": "TGI", "setting": "[30]", "result": "> 100", "unit": "µM"}, {"measurement": "TGI", "setting": "[31]", "result": "> 100", "unit": "µM"}, {"measurement": "TGI", "setting": "[32]", "result": "> 100", "unit": "µM"}, {"measurement": "TGI", "setting": "[33]", "result": "> 100", "unit": "µM"}, {"measurement": "TGI", "setting": "[34]", "result": "> 100", "unit": "µM"}, {"measurement": "TGI", "setting": "[35]", "result": "> 100", "unit": "µM"}, {"measurement": "TGI", "setting": "[36]", "result": "> 100", "unit": "µM"}, {"measurement": "TGI", "setting": "[37]", "result": "> 100", "unit": "µM"}, {"measurement": "TGI", "setting": "[38]", "result": 74, "unit": "µM"}, {"measurement": "TGI", "setting": "[39]", "result": "> 100", "unit": "µM"}, {"measurement": "TGI", "setting": "[40]", "result": "> 100", "unit": "µM"}, {"measurement": "TGI", "setting": "[41]", "result": "> 100", "unit": "µM"}, {"measurement": "TGI", "setting": "[42]", "result": "> 100", "unit": "µM"}, {"measurement": "TGI", "setting": "[43]", "result": "> 100", "unit": "µM"}, {"measurement": "TGI", "setting": "[44]", "result": "> 100", "unit": "µM"}, {"measurement": "TGI", "setting": "[45]", "result": "> 100", "unit": "µM"}, {"measurement": "TGI", "setting": "[46]", "result": "> 100", "unit": "µM"}, {"measurement": "TGI", "setting": "[47]", "result": "> 100", "unit": "µM"}, {"measurement": "TGI", "setting": "[48]", "result": "> 100", "unit": "µM"}, {"measurement": "TGI", "setting": "[49]", "result": 40.7, "unit": "µM"}, {"measurement": "TGI", "setting": "[50]", "result": "> 100", "unit": "µM"}, {"measurement": "TGI", "setting": "[51]", "result": "> 100", "unit": "µM"}, {"measurement": "TGI", "setting": "[52]", "result": "> 100", "unit": "µM"}, {"measurement": "TGI", "setting": "[53]", "result": "> 100", "unit": "µM"}, {"measurement": "TGI", "setting": "[54]", "result": "> 100", "unit": "µM"}, {"measurement": "TGI", "setting": "[55]", "result": "> 100", "unit": "µM"}, {"measurement": "TGI", "setting": "[56]", "result": "> 100", "unit": "µM"}]}]}
